The values below come from publication PMC5626627 (The FEBS journal, 2017).

Residue numbers refer to the chain shown, from its start.

In assay [1] the target is T1, corn root FNR (ferredoxin:NADP+ reductase) (Zea mays, UniProt B4G043).
T1 sequence (B4G043 66-381): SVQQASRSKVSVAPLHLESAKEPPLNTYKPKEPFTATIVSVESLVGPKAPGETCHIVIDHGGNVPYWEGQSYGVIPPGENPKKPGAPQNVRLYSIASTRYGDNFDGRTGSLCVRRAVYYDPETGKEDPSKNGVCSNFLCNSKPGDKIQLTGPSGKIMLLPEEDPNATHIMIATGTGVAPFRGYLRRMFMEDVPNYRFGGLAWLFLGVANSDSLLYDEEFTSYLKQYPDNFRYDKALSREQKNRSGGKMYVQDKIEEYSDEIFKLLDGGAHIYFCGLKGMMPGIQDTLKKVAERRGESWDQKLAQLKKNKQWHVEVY
Nature of the assay: anaerobic spectrophotometric titration, flavin charge-transfer bands. The class given is biochemical. Particulars: 50 mM HEPES-NaOH, pH 7.0, 15 °C.

Assay [2] addresses T2, corn root FNR (ferredoxin:NADP+ reductase) (Zea mays, UniProt B4G043, Y381S).
T2 sequence (B4G043 66-381 Y381S): T1 sequence (B4G043 66-381) with Y316S
Kind of assay: anaerobic titration, visible absorption of FAD. It counts as binding.

Assay [3] addresses T2, corn root FNR (ferredoxin:NADP+ reductase). Nature of the assay: titration, visible absorption of FAD. It counts as binding.

`NC(=O)C1=CN([C@@H]2O[C@H](COP(=O)(O)OP(=O)(O)OC[C@H]3O[C@@H](n4cnc5c(N)ncnc54)[C@H](OP(=O)(O)O)[C@@H]3O)[C@@H](O)[C@H]2O)C=CC1` [NADPH]: the “anaerobic spectrophotometric titration, flavin charge-transfer bands” value in assay [1] is “for wild-type the CTC-1 absorption band dominates”.
In assay [2], `NC(=O)c1ccc[n+]([C@@H]2O[C@H](COP(=O)(O)OP(=O)(O)OC[C@H]3O[C@@H](n4cnc5c(N)ncnc54)[C@H](OP(=O)(O)O)[C@@H]3O)[C@@H](O)[C@H]2O)c1` [NADP^+] showed a Kd of at most 0.02 µM.
For the molecule `NC(=O)c1ccc[n+]([C@@H]2O[C@H](COP(=O)(O)OP(=O)(O)OC[C@H]3O[C@@H](n4cnc5c(N)ncnc54)[C@H](O)[C@@H]3O)[C@@H](O)[C@H]2O)c1` [NAD^+], in assay [3], the Kd was 145 ± 5 µM.
As to `NC(=O)c1cccnc1` [nicotinamide], the dissociation constant Kd in assay [3] is 3000 ± 100 µM. Against the preceding molecule, the Kd is about 21-fold higher.

Broadly, the Kd is the free concentration of one partner at which half of the binding sites on the other are occupied at equilibrium, for simple one-to-one binding.
